According to EP0910652B1, “HORMONE-MEDIATED METHODS FOR […] EXOGENOUS GENES IN MAMMALIAN SYSTEMS, AND PRODUCTS RELATED THERETO” (THE SALK INSTITUTE FOR BIOLOGICAL STUDIES, priority 1996, dated 1997):

Experiments:
[1] = system: modified ecdysone receptor GEcR (SEQ ID NO:9; N-terminal transactivation domain of GR, DNA- and ligand-binding domains of EcR) with USP; test: Transient transfection reporter assay in CV-1 cells, muristerone responsiveness; assay type: cell-based; details: 1µM muristerone A vs ethanol
Method: (§1) CV-1 cells were maintained in DMEM supplemented with 10% Fetal Bovine Serum. Transient transfections were performed using DOTAP transfection reagent (Boehringer-Mannheim). Transfections using ß-galactosidase as the reporter were assayed either by Galactolight luminescent assay (Tropix, Bedford, MA) or by standard liquid ONPG assay (Sigma, St. Louis, MO). The values were normalized by co-transfection of CMX-luciferase. Transfections using luciferase as the reporter were assayed by standard techniques using luciferin and ATP. These values were normalized by co-transfection of CMX-ß-galactosidase. Hormone treated cells were treated with ethanol, 50 µM Juvenile Hormone III (Sigma), 1µM muristerone A (Zambon, Bresso, IT), or 1µM dexamethasone (Sigma) unless otherwise noted.
(§2) To maximize the sensitivity of the invention ecdysone inducible system, modifications of the ecdysone receptor were made. The N-terminal transactivation domain of the ecdysone receptor was replaced by the corresponding domain of the glucocorticoid receptor (GR), resulting in the modified ecdysone receptor GEcR (See Figure 1D). CV-1 cells were transfected with the plasmid CMX-GEcR encoding the modified ecdysone receptor as discussed above. After transfection, cells were either treated with ethanol or 1µM muristerone A. This hybrid modified ecdysone receptor boosted muristerone responsiveness from 3- to 11-fold in a transient transfection assay (Fig. 1A).

[2] = system: ecdysone receptor (EcR) with its natural heterodimeric partner USP; test: as above; assay type: cell-based; details: 1µM muristerone A vs ethanol
Method: as §1, §2

[3] = system: modified ecdysone receptor GEcR (SEQ ID NO:9) with retinoid X receptor (RXR); test: as above; assay type: cell-based; details: 1µM muristerone A vs ethanol
Method: as §1, §2

[4] = system: modified ecdysone receptor VpEcR (SEQ ID NO:7; N-terminal truncation of EcR fused to VP16 activation domain) with RXR; test: as above; assay type: cell-based; details: 1µM muristerone A vs no hormone
Method: as §1

[5] = system: CV-1 cells transfected with CMX-GEcR, CMX-hRXRa, and EcREx5-DMTV-Luc; test: Muristerone bioavailability: serum of injected mice tested on transfected CV-1 cells; assay type: in vivo
Method: For muristerone bioavailability studies, adult mice were injected intraperitoneally with sesame oil with or without 10mg of muristerone, and were subsequently sacrificed for serum collection. After twelve hours, blood was drawn from the mice, and the serum was isolated by brief centrifugation of the whole blood. In order to conduct transfection assays to test for muristerone activity, serum from sesame oil injected mice was divided, and half was supplemented with muristerone to a final concentration of 10µM. The three batches of mouse serum were diluted 1:10 in DMEM and placed onto CV-1 cells transfected with CMX-GEcR, CMX-hRXRa, and EcREx5-DMTV-Luc.

adult mice = test: Toxicity study in adult mice; assay type: in vivo; details: 20mg muristerone A in sesame oil, intraperitoneal, observed approximately two months
Method: In order to use muristerone as a potential hormone in mice, its toxicity and bioavailability was examined. For toxicity studies, adult mice were injected intraperitonealy with 20mg of muristerone A suspended in sesame oil. The mice were then observed for approximately two months. […] In addition to the inert qualities of muristerone (an ecdysone), overexpression of VpEcR and RXR appears not to be toxic.

[6] = system: VpEcR (SEQ ID NO:7) with RXR (CMX-hRXRa) in N13 cells; test: Ecdysone responsiveness in stable cell line N13 (293 cells), ß-galactosidase and luciferase reporters; assay type: cell-based; details: 36 hours
Method: Stable cell lines were generated containing the modified ecdysone receptor VpEcR, a heterodimeric partner (RXR), and an ecdysone inducible reporter (Figure 2). 293 cells were transfected with the following linearized plasmids, pRC-ESHß, EcREx5-ΔMTV-Luc, CMX-VpEcR, and CMX-hRXRa. The following day, the cells were split 1:10 and were allowed to recover one day prior to selection with 1mg/ml G418 (GIBCO). After 14 days of selection, 14 individual clones were isolated and grown separately in the presence of 0.5mg/ml G418.
One of these cell lines, N13, was grown in the presence or absence of 1µM muristerone for 20 hours. Cell lysates were then assayed for ß-galactosidase and luciferase activities as described in Example 1. X-gal staining was performed on the stable cell lines. Cells were fixed briefly with 10% formaldehyde in PBS and then stained with X-Gal (Molecular Probes, Eugene, OR) for 2 to 6 hours. After 24 hours of treatment with 1µM muristerone, 100% of the cells turned dark blue after 3 hours of staining. Thus, mammalian cells containing the modified ecdysone receptor VpEcR, a heterodimeric partner (RXR), and a reporter gene construct regulated by a modified ecdysone response element, function to efficiently express an exogenous gene in response to a ligand, e.g., ecdysone. […]
Finally, the kinetics of muristerone mediated induction was measured. […]

pregnant mice = test: Teratogenic study in pregnant mice; assay type: in vivo; details: 20mg muristerone A in sesame oil, mother and pups observed for three months
[7] = system: VpEcR and RXR (CD3-VpEcR; CD3-RXR) with ecdysone inducible reporter ESHß; test: Muristerone dependent gene expression in receptor/reporter transgenic mice, Northern blot; assay type: in vivo; details: 10mg muristerone intraperitoneal, RNA isolated 48 hours after treatment
Method: To produce transgenic mice, the following DNA constructs were prepared and subsequently injected into fertilized eggs: CD3-VpEcR, CD3-RXR, ESHß (Lee et al., J. Exp. Med. 175:1013-1025 (1992)). Two separate lines of transgenic mice were generated harboring either an ecdysone inducible reporter, ESHß, or a T-cell specific expression construct of VpEcR and RXR, respectively. The former are referred to as reporter mice, the latter are referred to as receptor mice, and double transgenic mice are referred to as receptor/reporter mice. Constructs CD3-VpEcR and CD3-RXR were mixed and coinjected, while ESHß was injected alone. Primary genotyping was performed by Southern blot analysis and the transmission of transgenic mice was monitored by dot blot analysis. Receptor mice were analyzed for VpEcR and RXR expression by Northern blot analysis of RNA collected from these mice. For Northern blot analysis, 15µg of total RNA obtained from the thymus, and various tissues as a control, was run on a denaturing gel and blotted onto a nitrocellulose membrane. The blot was probed with a radiolabeled ß-gal-specific probe and exposed on film for 2 days. These receptor mice were healthy, fertile, and appeared normal by visual inspection. In addition, the transgene was transferred to the offspring as expected by Mendelian genetics. […]

CC(C)CC[C@@H](O)[C@](C)(O)[C@H]1CC[C@@]2(O)C3=CC(=O)[C@]4(O)C[C@@H](O)[C@@H](O)C[C@]4(C)[C@H]3[C@H](O)C[C@]12C [muristerone A]
muristerone responsiveness (induction) [1]: 11 fold
muristerone responsiveness (induction) [2]: 3 fold
induction [3]: 34 fold
induction [4]: 212 fold
luciferase activity of serum from muristerone treated mice ([5]; 10mg muristerone intraperitoneal, serum after twelve hours, diluted 1:10 in DMEM): comparable to that seen from untreated mouse serum supplemented with 1µM muristerone
activity when injected into mice ([5]; injected into mice): maintains its activity
inactivation by serum binding proteins ([5]; injected into mice): nor inactivated by serum binding proteins
blunting of activity due to association with serum proteins ([5]; mouse serum): little or no blunting of activity
toxicity (adult mice): neither toxic
inducibility ([6]; final concentration 10µM muristerone, ß-galactosidase and luciferase reporters): ~3 orders of magnitude
induction ([6]; muristerone concentrations as low as 100nM): One-hundred
teratogenicity (pregnant mice): neither toxic, teratogenic
induction from an ecdysone inducible promoter in the thymus [7]: significant induction
